Read-outs that look alike come from different tables or passages of the source.
Columns and labels:
Test in all cases: KINOMEscan ScanTK
Type in all cases: binding
[1] = molecular target: T1, ABL1(F317I)-nonphosphorylated (Homo sapiens, UniProt P00519, F317I)
T1 construct: purchased Eurofins DiscoverX KINOMEscan (scanTK)

[2] = molecular target: T2, ABL1(F317I)-phosphorylated (Homo sapiens, UniProt P00519, F317I)
T2 construct: purchased Eurofins DiscoverX KINOMEscan (scanTK)

[3] = molecular target: T3, ABL1(Q252H)-nonphosphorylated (Homo sapiens, UniProt P00519, Q252H)
T3 construct: purchased Eurofins DiscoverX KINOMEscan (scanTK)

[4] = molecular target: T4, BLK (Homo sapiens, UniProt P51451); conditions: BLK
T4 construct: purchased Eurofins DiscoverX KINOMEscan (scanTK)

[5] = molecular target: T5, EGFR(E746-A750del) (Homo sapiens, UniProt P00533, DEL746-750)
T5 construct: purchased Eurofins DiscoverX KINOMEscan (scanTK)

[6] = system: EGFR(L747-T751del,Sins)
[7] = molecular target: T6, EPHA6 (Homo sapiens, UniProt Q9UF33)
T6 construct: purchased Eurofins DiscoverX KINOMEscan (scanTK)
T6 sequence (Q9UF33 23-1036): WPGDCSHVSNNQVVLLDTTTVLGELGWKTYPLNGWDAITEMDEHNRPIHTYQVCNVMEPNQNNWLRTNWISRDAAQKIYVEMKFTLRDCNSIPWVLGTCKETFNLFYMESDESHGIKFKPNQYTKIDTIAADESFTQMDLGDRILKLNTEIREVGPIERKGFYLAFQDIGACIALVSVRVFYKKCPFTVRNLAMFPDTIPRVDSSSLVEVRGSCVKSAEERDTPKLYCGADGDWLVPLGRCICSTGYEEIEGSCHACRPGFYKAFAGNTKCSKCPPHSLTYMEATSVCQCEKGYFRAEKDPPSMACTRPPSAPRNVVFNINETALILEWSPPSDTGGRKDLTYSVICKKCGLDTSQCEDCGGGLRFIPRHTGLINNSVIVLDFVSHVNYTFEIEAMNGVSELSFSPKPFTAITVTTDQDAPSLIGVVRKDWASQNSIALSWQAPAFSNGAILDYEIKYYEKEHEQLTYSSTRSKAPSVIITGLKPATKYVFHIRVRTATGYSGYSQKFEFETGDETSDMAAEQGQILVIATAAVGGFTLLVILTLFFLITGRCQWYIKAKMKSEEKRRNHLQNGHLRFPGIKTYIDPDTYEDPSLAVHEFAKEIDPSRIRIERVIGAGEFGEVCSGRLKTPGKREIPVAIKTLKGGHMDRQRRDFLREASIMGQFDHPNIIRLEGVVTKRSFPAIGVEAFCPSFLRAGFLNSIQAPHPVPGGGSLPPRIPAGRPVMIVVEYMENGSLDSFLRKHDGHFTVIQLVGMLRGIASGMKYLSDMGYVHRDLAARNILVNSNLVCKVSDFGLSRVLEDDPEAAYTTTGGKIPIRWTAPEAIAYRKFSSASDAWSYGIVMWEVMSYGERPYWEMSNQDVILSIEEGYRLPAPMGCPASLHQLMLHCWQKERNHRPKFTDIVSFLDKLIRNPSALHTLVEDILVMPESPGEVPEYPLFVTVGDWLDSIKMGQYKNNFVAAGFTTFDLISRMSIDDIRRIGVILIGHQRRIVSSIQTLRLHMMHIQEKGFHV

[8] = molecular target: T7, EPHB3 (Homo sapiens, UniProt P54753)
T7 construct: purchased Eurofins DiscoverX KINOMEscan (scanTK)
T7 sequence (P54753 34-998): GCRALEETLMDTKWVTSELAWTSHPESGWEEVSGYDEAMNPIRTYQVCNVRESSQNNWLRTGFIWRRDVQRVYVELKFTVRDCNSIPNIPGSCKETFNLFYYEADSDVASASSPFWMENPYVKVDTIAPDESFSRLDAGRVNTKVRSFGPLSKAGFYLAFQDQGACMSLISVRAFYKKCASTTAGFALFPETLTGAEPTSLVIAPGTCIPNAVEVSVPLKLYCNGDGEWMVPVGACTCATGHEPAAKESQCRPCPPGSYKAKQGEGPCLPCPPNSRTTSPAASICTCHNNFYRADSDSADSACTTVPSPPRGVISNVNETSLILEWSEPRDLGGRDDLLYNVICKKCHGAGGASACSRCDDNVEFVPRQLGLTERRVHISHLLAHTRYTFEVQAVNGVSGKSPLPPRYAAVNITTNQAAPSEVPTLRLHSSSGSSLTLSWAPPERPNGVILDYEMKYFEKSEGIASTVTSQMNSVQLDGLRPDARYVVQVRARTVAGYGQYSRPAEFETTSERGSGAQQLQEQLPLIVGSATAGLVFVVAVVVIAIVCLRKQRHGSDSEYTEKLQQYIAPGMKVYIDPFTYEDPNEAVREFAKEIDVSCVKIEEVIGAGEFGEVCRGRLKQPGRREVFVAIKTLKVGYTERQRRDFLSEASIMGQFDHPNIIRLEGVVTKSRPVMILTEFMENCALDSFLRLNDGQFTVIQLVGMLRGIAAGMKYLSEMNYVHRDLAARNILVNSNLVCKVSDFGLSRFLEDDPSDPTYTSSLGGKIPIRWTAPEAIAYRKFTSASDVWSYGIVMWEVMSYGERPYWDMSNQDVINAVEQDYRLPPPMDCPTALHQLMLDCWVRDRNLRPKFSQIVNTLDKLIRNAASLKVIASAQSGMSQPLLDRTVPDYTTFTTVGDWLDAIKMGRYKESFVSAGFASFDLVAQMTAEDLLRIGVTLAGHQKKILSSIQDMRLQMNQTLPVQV

[9] = molecular target: T8, FGFR3 (Homo sapiens, UniProt P22607)
T8 construct: purchased Eurofins DiscoverX KINOMEscan (scanTK)

[10] = molecular target: T9, MET (Homo sapiens, UniProt P08581)
T9 construct: purchased Eurofins DiscoverX KINOMEscan (scanTK)

[11] = molecular target: T10, MET(M1250T) (Homo sapiens, UniProt P08581, M1250T)
T10 construct: purchased Eurofins DiscoverX KINOMEscan (scanTK)

[12] = molecular target: T11, TIE1 (Homo sapiens, UniProt P35590)
T11 construct: purchased Eurofins DiscoverX KINOMEscan (scanTK)
T11 sequence (P35590 22-1138): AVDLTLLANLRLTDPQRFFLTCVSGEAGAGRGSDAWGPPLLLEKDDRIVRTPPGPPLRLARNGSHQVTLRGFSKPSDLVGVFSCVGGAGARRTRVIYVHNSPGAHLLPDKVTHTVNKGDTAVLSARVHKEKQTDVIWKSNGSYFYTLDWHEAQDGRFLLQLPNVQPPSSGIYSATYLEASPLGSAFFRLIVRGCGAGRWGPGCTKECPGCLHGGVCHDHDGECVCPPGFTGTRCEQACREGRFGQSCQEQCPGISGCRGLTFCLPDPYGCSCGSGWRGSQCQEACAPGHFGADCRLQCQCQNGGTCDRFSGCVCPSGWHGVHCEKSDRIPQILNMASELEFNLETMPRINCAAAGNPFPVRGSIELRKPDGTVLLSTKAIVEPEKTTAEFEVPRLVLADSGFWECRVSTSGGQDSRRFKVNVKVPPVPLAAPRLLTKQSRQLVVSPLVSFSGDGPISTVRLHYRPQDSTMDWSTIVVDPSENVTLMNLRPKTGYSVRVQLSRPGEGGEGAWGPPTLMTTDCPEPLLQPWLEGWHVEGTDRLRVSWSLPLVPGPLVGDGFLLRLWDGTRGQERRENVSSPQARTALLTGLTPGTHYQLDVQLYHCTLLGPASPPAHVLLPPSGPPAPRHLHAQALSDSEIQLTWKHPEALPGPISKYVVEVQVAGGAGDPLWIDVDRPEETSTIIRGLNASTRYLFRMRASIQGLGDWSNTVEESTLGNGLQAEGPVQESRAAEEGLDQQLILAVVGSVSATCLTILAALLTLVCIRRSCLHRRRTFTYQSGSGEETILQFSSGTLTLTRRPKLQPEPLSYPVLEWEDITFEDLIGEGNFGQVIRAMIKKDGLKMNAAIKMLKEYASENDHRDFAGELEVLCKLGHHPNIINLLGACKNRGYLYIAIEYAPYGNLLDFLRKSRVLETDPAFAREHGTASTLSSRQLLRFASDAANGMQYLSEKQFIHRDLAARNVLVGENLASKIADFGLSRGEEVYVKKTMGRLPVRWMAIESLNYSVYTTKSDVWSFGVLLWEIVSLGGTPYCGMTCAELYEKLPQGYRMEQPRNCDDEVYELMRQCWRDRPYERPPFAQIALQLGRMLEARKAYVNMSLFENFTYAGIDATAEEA

T5 sequence (P00533 with tags, fused parts or gaps DEL746-750 limits assumed): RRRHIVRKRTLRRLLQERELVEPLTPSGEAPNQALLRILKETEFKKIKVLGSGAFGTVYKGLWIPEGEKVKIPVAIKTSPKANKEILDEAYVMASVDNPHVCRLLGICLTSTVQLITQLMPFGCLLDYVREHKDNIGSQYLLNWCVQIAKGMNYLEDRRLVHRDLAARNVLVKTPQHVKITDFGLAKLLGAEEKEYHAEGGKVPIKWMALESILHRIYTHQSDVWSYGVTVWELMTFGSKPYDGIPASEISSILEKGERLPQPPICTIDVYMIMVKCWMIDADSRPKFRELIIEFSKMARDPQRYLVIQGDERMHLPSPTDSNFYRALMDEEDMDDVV
T8 sequence (P22607 23-806): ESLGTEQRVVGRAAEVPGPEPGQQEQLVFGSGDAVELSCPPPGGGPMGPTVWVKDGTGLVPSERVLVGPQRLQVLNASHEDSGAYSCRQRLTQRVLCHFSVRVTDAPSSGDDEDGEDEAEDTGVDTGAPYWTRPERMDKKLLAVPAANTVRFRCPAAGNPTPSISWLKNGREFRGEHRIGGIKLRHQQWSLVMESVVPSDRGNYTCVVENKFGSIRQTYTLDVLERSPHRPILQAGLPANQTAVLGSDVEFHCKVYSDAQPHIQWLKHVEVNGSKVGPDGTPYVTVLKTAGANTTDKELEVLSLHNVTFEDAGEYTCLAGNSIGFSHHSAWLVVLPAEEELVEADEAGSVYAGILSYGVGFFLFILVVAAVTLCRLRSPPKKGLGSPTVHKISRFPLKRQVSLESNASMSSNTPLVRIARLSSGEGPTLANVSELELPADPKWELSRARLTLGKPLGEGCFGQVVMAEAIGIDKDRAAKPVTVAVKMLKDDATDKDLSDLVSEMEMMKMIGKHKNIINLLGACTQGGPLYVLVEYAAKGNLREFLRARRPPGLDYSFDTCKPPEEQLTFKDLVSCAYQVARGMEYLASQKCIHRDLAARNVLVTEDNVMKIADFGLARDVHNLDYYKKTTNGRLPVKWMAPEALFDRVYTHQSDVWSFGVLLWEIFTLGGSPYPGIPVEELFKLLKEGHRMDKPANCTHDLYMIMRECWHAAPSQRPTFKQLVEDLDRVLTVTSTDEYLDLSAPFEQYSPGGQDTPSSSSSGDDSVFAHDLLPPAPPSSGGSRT
T4 sequence (P51451 whole entry): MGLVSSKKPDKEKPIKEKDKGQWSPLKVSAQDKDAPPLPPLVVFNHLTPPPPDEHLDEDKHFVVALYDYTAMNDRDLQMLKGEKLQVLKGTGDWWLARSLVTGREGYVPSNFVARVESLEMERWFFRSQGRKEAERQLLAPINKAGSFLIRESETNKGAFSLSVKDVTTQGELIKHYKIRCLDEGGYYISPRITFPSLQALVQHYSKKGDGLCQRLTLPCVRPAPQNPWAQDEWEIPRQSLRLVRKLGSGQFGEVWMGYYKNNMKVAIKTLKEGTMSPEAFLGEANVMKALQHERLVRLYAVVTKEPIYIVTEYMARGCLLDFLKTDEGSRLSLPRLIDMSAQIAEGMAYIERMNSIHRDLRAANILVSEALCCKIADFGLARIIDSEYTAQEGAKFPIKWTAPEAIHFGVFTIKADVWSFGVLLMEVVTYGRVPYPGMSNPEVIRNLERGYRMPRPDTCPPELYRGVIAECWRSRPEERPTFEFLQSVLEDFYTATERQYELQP
T9 sequence (P08581 25-1390): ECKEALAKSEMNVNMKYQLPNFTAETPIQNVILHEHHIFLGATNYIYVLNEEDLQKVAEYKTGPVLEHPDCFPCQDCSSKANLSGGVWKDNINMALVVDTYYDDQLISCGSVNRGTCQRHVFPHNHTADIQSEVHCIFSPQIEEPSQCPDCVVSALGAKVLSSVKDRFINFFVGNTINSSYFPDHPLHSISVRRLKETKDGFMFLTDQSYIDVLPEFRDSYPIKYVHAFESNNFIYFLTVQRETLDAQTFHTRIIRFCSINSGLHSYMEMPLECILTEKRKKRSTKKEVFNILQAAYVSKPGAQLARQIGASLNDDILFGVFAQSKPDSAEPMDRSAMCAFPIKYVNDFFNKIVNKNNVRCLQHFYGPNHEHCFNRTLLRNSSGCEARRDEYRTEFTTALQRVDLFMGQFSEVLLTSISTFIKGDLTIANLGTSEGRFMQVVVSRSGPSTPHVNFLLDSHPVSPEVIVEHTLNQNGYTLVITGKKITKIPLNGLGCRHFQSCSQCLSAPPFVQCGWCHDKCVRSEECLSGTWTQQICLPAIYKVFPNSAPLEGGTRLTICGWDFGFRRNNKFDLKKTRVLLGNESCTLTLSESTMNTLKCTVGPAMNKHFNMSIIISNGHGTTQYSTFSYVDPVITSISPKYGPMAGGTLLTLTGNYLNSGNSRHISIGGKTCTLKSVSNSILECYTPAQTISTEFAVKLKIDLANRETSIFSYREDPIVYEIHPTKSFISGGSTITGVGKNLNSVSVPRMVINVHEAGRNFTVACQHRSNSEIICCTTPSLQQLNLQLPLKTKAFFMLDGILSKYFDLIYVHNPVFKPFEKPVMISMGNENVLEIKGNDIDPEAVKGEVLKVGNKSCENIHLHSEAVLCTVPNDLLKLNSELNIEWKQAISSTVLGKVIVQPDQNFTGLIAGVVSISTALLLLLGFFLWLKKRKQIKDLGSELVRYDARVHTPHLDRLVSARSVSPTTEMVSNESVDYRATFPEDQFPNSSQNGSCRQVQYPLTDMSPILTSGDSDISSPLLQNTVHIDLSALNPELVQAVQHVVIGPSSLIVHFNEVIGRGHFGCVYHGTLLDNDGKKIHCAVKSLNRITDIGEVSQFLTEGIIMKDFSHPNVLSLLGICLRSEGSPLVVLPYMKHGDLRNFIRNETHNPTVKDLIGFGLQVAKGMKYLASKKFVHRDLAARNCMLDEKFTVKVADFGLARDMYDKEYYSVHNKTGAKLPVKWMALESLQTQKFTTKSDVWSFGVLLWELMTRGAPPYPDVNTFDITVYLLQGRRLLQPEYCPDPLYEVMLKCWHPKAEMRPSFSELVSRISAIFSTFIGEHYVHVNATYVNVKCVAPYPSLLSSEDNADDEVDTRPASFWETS

CCOC(=O)c1cnc(S(C)(=O)=O)nc1N1CCC[C@@H](n2nc(-c3ccc(Oc4ccccc4)cc3)c3c(N)ncnc32)C1 [Compound 8c, Ethyl (R)-4-(3-(4-Amino-3-(4-phenoxyphenyl)-1H-pyrazolo[3,4-d]pyrimidin-1-yl)piperidin-1-yl)-2-(methylsulfonyl)pyrimidine-5-carboxylate]
difference in %Control versus compound Ib at 1 µM ([1]; @1000nM): 46%
remaining binding at 1 µM ([1]; @1000nM, read-out: %Control): 98%
remaining binding at 1 µM ([1]; read-out: %Control @1000nM): 98%
difference in %Control from reference compound Ib at 1 µM ([2]; @1000nM): 15%
remaining binding at 1 µM ([2]; @1000nM, read-out: %Control): 88%
remaining binding at 1 µM ([2]; read-out: %Control @1000nM): 88%
difference in %Control versus reference compound Ib at 1 µM ([3]; @1000nM): 23%
remaining binding at 1 µM ([3]; @1000nM, read-out: %Control): 36%
remaining binding at 1 µM ([3]; read-out: %Control @1000nM): 36%
difference in %Control vs reference Ib at 1 µM ([4]; @1000nM, read-out: % difference (compound - Ib %Control)): 0.15%
remaining binding at 1 µM ([4]; @1000nM, read-out: %Control): 0.2%
remaining binding at 1 µM ([4]; read-out: %Control @1000nM): 0.2%
difference in %Control from reference compound Ib at 1 µM ([5]; @1000nM): 89%
remaining binding at 1 µM ([5]; @1000nM, read-out: %Control): 100%
remaining binding at 1 µM ([5]; read-out: %Control @1000nM): 100%
%Control @1000nM [6]: 74%
% difference (compound - Ib %Control) ([6]; @1000nM): 71.4%
%Control ([6]; @1000nM): 74%
difference in %Control from compound Ib at 1 µM ([7]; @1000nM): 10%
remaining binding at 1 µM ([7]; @1000nM, read-out: %Control): 87%
remaining binding at 1 µM ([7]; read-out: %Control @1000nM): 87%
difference in %Control versus compound Ib at 1 µM ([8]; @1000nM): -20%
remaining binding at 1 µM ([8]; @1000nM, read-out: %Control): 78%
remaining binding at 1 µM ([8]; read-out: %Control @1000nM): 78%
difference in %Control versus compound Ib at 1 µM ([9]; @1000nM): 48%
remaining binding at 1 µM ([9]; @1000nM, read-out: %Control): 96%
remaining binding at 1 µM ([9]; read-out: %Control @1000nM): 96%
remaining binding at 1 µM ([10]; @1000nM, read-out: %Control): 100%
remaining binding at 1 µM ([10]; read-out: %Control @1000nM): 100%
remaining binding at 1 µM ([11]; @1000nM, read-out: %Control): 96%
remaining binding at 1 µM ([11]; read-out: %Control @1000nM): 96%
remaining binding at 1 µM ([12]; @1000nM, read-out: %Control): 60%
remaining binding at 1 µM ([12]; read-out: %Control @1000nM): 60%
